Assay results taken from patent US20230025843A1, “MAMMAL KINASE INHIBITORS TO PROMOTE IN VITRO EMBRYOGENESIS INDUCTION OF PLANTS” (CONSEJO SUPERIOR DE INVESTIGACIONES CIENTIFICAS (CSIC), priority 2019, published 2023).
Where “and” joins values, the source holds several entries; their conditions need not be identical. Identical values can stand only once.

Key:
Format in all cases: cell-based
[1] = system: B. napus microspore cultures; test: Microspore embryogenesis induction in isolated microspore culture (proembryos at 4 days), liquid medium; settings: for concentrations that provided an improvement of embryogenesis initiation yield: B. napus microspore cultures, proembryos at 4 days vs control, 3-4 concentrations tested; for increase in the percentage of proembryos: 4 days, vs control cultures normalized to 100%
Method: B. napus L. (rapeseed) cv. ‘Topas’ line DH407 plants were used as donor plants. Rapeseed seeds were germinated and grew under controlled conditions (relative humidity 60%, 15° C. under long-day photoperiod 16 h light and 8 h dark at 10° C.) in a growth chamber in pots containing a mixture of organic substrate and vermiculite (2/1, v/v).
Flower buds containing vacuolated microspores, the most responsive stage for microspore induction, were isolated for microspore culture as previously described (Prem et al., 2012 BMC Plant Biology 12, 127). The selected buds were surface-sterilized in 5.0% (v/v) commercial bleach (5% active chlorine) for 20 min and then rinsed 6-7 times with sterile distilled water. Ten to 15 buds were crushed using a cold mortar and pestle in 5 ml of cold NLN-13 medium containing 13% sucrose (w/v). The suspension was filtered through 48 μm nylon mesh and the filtrate collected in 15-ml falcon centrifuge tubes. The crushed buds were rinsed with 5 ml NLN-13 to make up the volume to 10 ml and the filtrate was then centrifuged at 1100 rpm for 5 min at 4° C. The pellet was re-suspended in 10 ml of cold NLN-13 and centrifuged as mentioned above. This process was repeated three times for washing of the microspores. The final pellet was suspended in the NLN-13, and the cell density was adjusted to 10,000 cells per ml. The cell suspension was then poured into 90-mm Petri dishes (10 ml per Petri dish) and cultured in darkness. For embryogenesis induction, microspore cultures were subjected to an in vitro stress treatment of 32° C. for 15 days. In response to the inductive treatment, responsive microspores divide and produce multicellular structures or proembryos, still confined within the microspore wall (exine). Such structures are considered to be the first sign of embryogenesis initiation; they can be found after 4-6 days in culture. When globular/heart shaped embryos were observed (around 20 days), cultures were shifted to 25° C. on a gyratory shaker at 60 rpm until complete development and maturation of the embryos was observed (FIG. 1), normally around 30 days in culture.
The compounds were added to the microspore liquid culture media by using stock solutions of 10 mM in DMSO. Appropriate volumes of stock solutions of the drugs were added to the culture media to get the selected working concentrations of the inhibitors, keeping DMSO concentration below 0.2%. • In B. napus microspore cultures: 4-benzyl-2-methyl-1,2,4-thiadozilidine-3,5-dione (TDZD8), 5-(2-Morpholinethylimino)-2,3-diphenyl-2,5-dihydro-1,2,4-thiadiazole (VP3.15), 3-acetyl-4-(1-methyl-1H-indol-3-yl)-1H-pirrol-2,5-dione (VP3.36), 4-hydroxy-1-ethyl-N′-palmitoyl-2-oxo-1,2-dihydroquinoline-3-carbohydrazide (VP0.7), N-(6-methylbenzothiazole-2-yl)-4-morpholinobenzamide (JZ1.3), N-(6-fluorobenzothiazole-2-yl)-4-morpholinobenzamide, (JZ1.6) and N-(6-bromobenzothiazole-2-yl)-4-morpholinobenzamide (JZ1.24). and (E,Z)-3-(morpholinoimino)indolin-2-one (IGS4.75) were tested at 3-4 different concentrations, ranging from 0.5 to 5 μM. • In H. vulgare microspore cultures: 4-benzyl-2-methyl-1,2,4-thiadozilidine-3,5-dione (TDZD8) and N-(6-bromobenzothiazole-2-yl)-4-morpholinobenzamide (JZ1.24) inhibitors at the selected concentrations (2.5 μM and […], respectively) were tested.
The compounds were added from culture initiation and their effect on embryogenesis efficiency was assessed. Several plates of the same cultures were kept without the inhibitors, as controls.
Embryogenesis induction was quantified in control and treated-cultures by the number of proembryos formed (considered the first sign of embryogenesis initiation), as previously described, and by the number of embryos produced after 40 days. Proembryos were easily identified under inverted microscope in 4 day-culture plates as rounded multicellular structures with higher size and density than microspores, still surrounded by the exine (special microspore wall). […]

[2] = system: H. vulgare microspore cultures; test: Microspore embryogenesis induction in isolated microspore culture (proembryos at 4 days, embryos at 40 days), liquid medium; settings: for increase in proembryo formation: 4 days; for increment of total number of embryos produced per plate: 40 days, vs control, selected concentrations (2.5 μM TDZD8, 5 μM JZ1.24)
Method: H. vulgare L. cv. Igri plants were used as donor plants. Seeds were vernalized in soil for one month at 4° C., and then transferred for one month in a plant growth chamber at 18° C. for germination and growth. Finally, plants were transferred to a greenhouse under 18° C. temperature.
Spikes containing microspores at the stage of vacuolated microspore, the most responsive stage for embryogenesis induction, were collected and surface sterilized by immersion in 5% bleach for 20 min, followed by 4 washes with sterile distilled water. Isolated microspore culture was settled as previously described (Rodŕiguez-Serrano et al., 2012, Journal of Experimental Botany 63(5), 2007-2024). The sterilized spikes were pre-treated at 4° C. for 21-24 days as stress treatment to induce microspore embryogenesis. Microspore were isolated blending spikes in 20 ml of pre-cooled 0.4 M mannitol at 4° C., using a Waring Blender pre-cooled in a refrigerator at −20° C., and the extract was filtered through a 100 μm nylon mesh into a beaker pre-cooled at −20° C. The collected microspore suspension was transferred into a 50 ml tube and centrifuged at 800 rpm for 10 min at 4° C. After removing the supernatant, the pellet was resuspended in 4 ml of pre-cooled 0.55 M maltose and transferred in 15 ml falcon tube. 1.5 ml of 0.4 M mannitol solution were cautiously added unmixed. After gradient centrifugation at 800 rpm for 10 min at 4° C., the interphase band consisting of an almost pure population of vacuolated microspores was resuspended in 0.4M mannitol solution giving a final volume of 10 ml. After counting cells in the Neubauer chamber, the pelleted microspores were diluted in an appropriate volume of KBP medium to obtain a cell density of 1.1×10^5 cells per ml, and plated in 30 mm Petri dishes, at a volume of 1 ml per plate. Then, microspore cultures were incubated at 25° C. in the dark, and microspores reprogrammed and produced multicellular structures/proembryos that can be found after 4-6 days in culture, as the first sign of embryogenesis initiation. Proembryos further developed and produced coleoptylar and mature embryos (FIG. 2), which were observed after 30 days.
The compounds were added to the microspore liquid culture media by using stock solutions of 10 mM in DMSO. […]
The compounds were added from culture initiation and their effect on embryogenesis efficiency was assessed. […]
Embryogenesis induction was quantified in control and treated-cultures by the number of proembryos formed (considered the first sign of embryogenesis initiation), as previously described, and by the number of embryos produced after 40 days. […]

[3] = system: proembryos of B. napus microspore cultures; test: DAPI staining of proembryos, fluorescence microscopy of squash preparations; settings: 4 days in culture
Method: In order to evaluate whether proembryo structures of treated cultures, identified under the inverted microscope for quantification, were actually dividing microspores, similar to the same structures in control cultures, a simply staining technique was performed to visualize nuclei inside proembryos. Samples from control and treated-cultures of 4 days, containing proembryos, were stained with 10 μg/mL 4′,6-diamidine-2-phenyl indole dihydrochloride (DAPI). Squash preparations were analysed under fluorescence microscopy using UV excitation for observing nuclei.

For O=C1Nc2ccccc2C1=NN1CCOCC1 [IGS4.75, (E,Z)-3-(morpholinoimino)indolin-2-one], the “concentrations that provided an improvement of embryogenesis initiation yield” value [1] was 5 µM.
For Cc1ccc2nc(NC(=O)c3ccc(N4CCOCC4)cc3)sc2c1 [JZ1.3, N-(6-methylbenzothiazole-2-yl)-4-morpholinobenzamide], the “concentrations that provided an improvement of embryogenesis initiation yield” value [1] was 5 µM.
With O=C(Nc1nc2ccc(F)cc2s1)c1ccc(N2CCOCC2)cc1 [JZ1.6, N-(6-fluorobenzothiazole-2-yl)-4-morpholinobenzamide] the “concentrations that provided an improvement of embryogenesis initiation yield” value [1] was 1 µM.
For O=C(Nc1nc2ccc(Br)cc2s1)c1ccc(N2CCOCC2)cc1 [JZ1.24, N-(6-bromobenzothiazole-2-yl)-4-morpholinobenzamide], the “increase in the percentage of proembryos” value ([1]; 2.5 μM) was 27.5%, the “concentrations that provided an improvement of embryogenesis initiation yield” value [1] was 2.5 µM and the “increase in proembryo formation” value ([2]; 5 μM) was 47%. For the same molecule, the “increment of total number of embryos produced per plate” value [2] was 22%.
With Cn1sc(=O)n(Cc2ccccc2)c1=O [TDZD8, 4-benzyl-2-methyl-1,2,4-thiadozilidine-3,5-dione, reference compound] the “increase in the percentage of proembryos” value ([1]; 0.5 μM) was 20%, the “concentrations that provided an improvement of embryogenesis initiation yield” value [1] was 0.5 µM and 1 µM and the “nuclei in proembryos (DAPI staining)” value [3] was “proembryos contain several nuclei”. The “increase in proembryo formation” value ([2]; 2.5 μM) was 27% and the “increment of total number of embryos produced per plate” value [2] was 15%.
In the case of CCCCCCCCCCCCCCCC(=O)NNC(=O)c1c(O)c2ccccc2n(CC)c1=O [VP0.7, 4-hydroxy-1-ethyl-N′-palmitoyl-2-oxo-1,2-dihydroquinoline-3-carbohydrazide], the “concentrations that provided an improvement of embryogenesis initiation yield” value [1] is reported as 5 µM.
For c1ccc(-c2nc(=NCCN3CCOCC3)sn2-c2ccccc2)cc1 [VP3.15, 5-(2-Morpholinethylimino)-2,3-diphenyl-2,5-dihydro-1,2,4-thiadiazole], the “concentrations that provided an improvement of embryogenesis initiation yield” value [1] was 2.5 µM.
CC(=O)C1=C(c2cn(C)c3ccccc23)C(=O)NC1=O [VP3.36, 3-acetyl-4-(1-methyl-1H-indol-3-yl)-1H-pirrol-2,5-dione] was tested, and the “concentrations that provided an improvement of embryogenesis initiation yield” value [1] was 2.5 µM.
